# According to PubChem BioAssay AID1249 (Columbia University Molecular Screening Center, 2008):
# Calls of active or inactive are those of the source. How the calls were made is not given here.
# Experiment: modifiers of cytoskeleton assembly, confirmation, imaging, high-content imaging, retest and dose response (AID 1249);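 further: compound exposure lasted 24 h before fixation; plate controls were untreated cells for no effect and reference compound treated cells for full effect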
# Conditions: cell-based imaging, cytoskeleton assembly phenotype, high content; at 2 µM; hits give high values
row,SMILES,inhibition
1,O=C(c1ccc(Cl)cc1)N1CCCOC1,-2% (inactive)
2,O=C(CCS(=O)(=O)c1ccccc1)Nc1nc2c(s1)COc1ccccc1-2,6.6% (inactive)
3,COc1ccc(OC)c2sc(NC(=O)CCS(=O)(=O)c3ccccc3)nc12,-5.2% (inactive)
4,COc1cccc(C(C#N)N2CCCCC2)c1O (stereo unspecified),1.4% (inactive)
5,Cc1ccccc1NC1=C/C(=N\S(=O)(=O)c2cccs2)c2ccccc2C1=O,-3.8% (inactive)
6,Cc1ccc(S(=O)(=O)Nc2cc(C(=O)NCCN3CCCC3)ccc2N2CCCCC2)cc1,-7.7% (inactive)
7,C(=N\Nc1nc2ccccc2s1)/c1cccs1,-5.8% (inactive)
8,CCOC(=O)c1ccc(NC(=O)CCNc2c(N3CCCC3)c(=O)c2=O)cc1,1.6% (inactive)
9,C=CCn1c(N2CCCC2)nc2c1c(=O)[nH]c(=O)n2C,-4.9% (inactive)
10,O=C(c1cc(-c2ccncc2)nc2ccc(Br)cc12)N1CCN(c2ccccn2)CC1,-1% (inactive)
11,CC(=O)Nc1nc2cc3c(cc2s1)OCO3,1.3% (inactive)
12,CCOC(=O)c1[nH]c(C)c(C(=O)c2ccc(C)cc2)c1C,10.5% (inactive)
13,Cc1ccc(O)c(NC(=O)CCC2CCCCC2)c1,-15.6% (inactive)
14,Cc1cc(C)cc(OCC(=O)Nc2nonc2NC(=O)COc2cc(C)cc(C)c2)c1,-12% (inactive)
15,O=c1cc(C(Cl)(Cl)Cl)oc2c1ccc1ccccc12,-13.6% (inactive)
16,Cc1ccc(-c2nnc3ccc(SCC(=O)Nc4cc(C)on4)nn23)cc1,-5.1% (inactive)
17,Cc1ccc(-n2nc3ccc(NC(=O)/C=C/c4ccco4)cc3n2)cc1C,-5.3% (inactive)
18,O=C(CC(c1ccccc1)c1ccccc1)NCC1CCCO1 (stereo unspecified),-0.2% (inactive)
19,Fc1ccc(-n2[nH]nnc2=S)cc1N1CCCC1,10.6% (inactive)
20,CCc1nnc(NC(=O)CSc2nnc(COc3ccccc3)n2-c2ccc(C)cc2)s1,-4.1% (inactive)
21,O=C1CCSc2cccc3cccc(c23)N1,-5.2% (inactive)

row,SMILES,inhibition
1,CC1Cc2cc(-c3csc(NC(=O)Cc4cccs4)n3)ccc2N1S(C)(=O)=O (stereo unspecified),-0.1% (inactive)
2,O=C(O)C1C2C=CC(O2)C1C(=O)Nc1ccc(S(=O)(=O)Nc2ccccc2)cc1 (stereo unspecified),-5.8% (inactive)
3,COc1cc(/C=C(/C#N)C(=O)NCCc2c[nH]c3ccccc23)ccc1OCc1ccccc1F,2.3% (inactive)
4,CCOC(=O)Cc1csc(NC(=O)COc2ccc(N(C)S(=O)(=O)c3ccc(C)cc3)cc2)n1,0% (inactive)
5,Cn1nc(C(=O)OCC(=O)N2CCc3ccccc32)c2ccccc2c1=O,4.3% (inactive)
6,Clc1ccc(C2=Nn3c(nnc3-c3cccnc3)SC2)s1,0% (inactive)
7,C/C=C/COC(=O)c1[nH]c2c(c1C)C(=O)CC(c1ccco1)C2 (stereo unspecified),-1.7% (inactive)
8,N/C(Cc1cccs1)=N\OC(=O)COc1ccc(Br)cc1Cl,-3.7% (inactive)
9,CSC1=NCCN1C(=O)Cc1ccc(Cl)cc1,3% (inactive)
10,O=C(Oc1ccc2ccc(=O)oc2c1)N1CCOCC1,-7.8% (inactive)
11,CCOc1cc(-c2conc2N)cc(OCC)c1OCC,10.2% (inactive)
12,CCc1ccc(-c2nc(CN3CCC(C(=O)NCc4ccco4)CC3)c(C)o2)cc1,9.2% (inactive)
13,CCCCCc1ccc(-c2ccc(=O)[nH]n2)cc1,-6.9% (inactive)
14,C=CCn1c(N)c(C(=O)OCC(C)C)c2nc3ccccc3nc21,-0.2% (inactive)
15,COc1ccc2[nH]c(=O)c(CN(C(=O)c3ccncc3)C(C)C)cc2c1,-5.6% (inactive)
16,Cc1cc(C(=O)NN)c2cc(Br)ccc2n1,-2% (inactive)
17,O=c1[nH]c2cccnc2n1Cc1ccccc1,-3.8% (inactive)
18,CC(C)(C)c1ccc(C(=O)N/N=C/c2cccc(Cl)c2)cc1,7.3% (inactive)
19,CCOc1ccccc1C(=O)NCCC(=O)O,10.6% (inactive)
20,CCCc1nc(SCC(=O)Nc2nnc(CC)s2)c2c(C)c(C)sc2n1,8.7% (inactive)
